Measurements as given in patent US6897199B2, “Pharmaceutically acceptable salts of phenoxazine and phenothiazine compounds” (Dr. Reddy's Laboratories Ltd., priority 2001, dated 2005).
Where a name gives a salt, the structure may show the parent alone.

Columns and labels:
[1] = target: T1, hPPARα (Homo sapiens, UniProt Q07869); details: compound concentration 50 μM; luciferase activity, HEK-293 cells
T1 sequence (Q07869 239-466 limits assumed): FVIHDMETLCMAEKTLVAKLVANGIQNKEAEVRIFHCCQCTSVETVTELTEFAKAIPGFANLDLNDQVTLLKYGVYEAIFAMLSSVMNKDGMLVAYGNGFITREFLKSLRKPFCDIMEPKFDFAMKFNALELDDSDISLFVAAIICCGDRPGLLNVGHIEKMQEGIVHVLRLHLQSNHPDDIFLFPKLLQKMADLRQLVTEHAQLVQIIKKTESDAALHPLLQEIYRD
Experimental: a) Determination of hPPARα Activity
Ligand binding domain of hPPARα was fused to DNA binding domain of Yeast transcription factor GAL4 in eucaryotic expression vector. Using superfect (Qiagen, Germany) as transfecting reagent HEK-293 cells were transfected with this plasmid and a reporter plasmid harboring the luciferase gene driven by a GAL4 specific promoter. Compound was added at different concentrations after 42 hrs of transfection and incubated overnight.

[2] = system: hypercholesterolemic rat models; experiment: Plasma triglyceride and cholesterol lowering activity in hypercholesterolemic rat models; assay type: in vivo, Male Sprague Dawley rats; details: dose 10 mg/kg orally for 3 days
Experimental: b) Plasma triglyceride and Cholesterol Lowering Activity in Hypercholesterolemic Rat Models
Male Sprague Dawley rats (NIN stock) were bred in DRF animal house. Animals were maintained under 12 hour light and dark cycle at 25±1° C. Rats of 180-200 gram body weight range were used for the experiment. Animals are made hypercholesterolemic by feeding 2% cholesterol and 1% sodium cholate mixed with standard laboratory chow [National Institute of Nutrition (NIN), Hyderabad, India] for 6 days. Throughout the experimental period the animals are maintained on the same diet (Petit, D., Bonnefis, M. T., Rey, C and Infante, R. Effects of ciprofibrate on liver lipids and lipoprotein synthesis in normo- and hyperlipidemic rats. Atherosclerosis. 1988.74: 215-225).
The test compounds were administered orally at a dose 0.1 to 30 mg/kg/day for 3 days. Control group is treated with vehicle alone (0.25% Carboxymethylcellulose; dose 10 ml/kg).
The blood samples were collected in fed state 1 hour after drug administration on 0 and 3 day of compound treatment. The blood was collected from the retro-orbital sinus through heparinised capillary in EDTA containing tubes. After centrifugation, plasma sample is separated for total cholesterol, HDL and triglyceride estimations. Measurement of plasma triglyceride (TG), total cholesterol (TC) and HDL are done using commercial kits (Dr. Reddy's Laboratory, Diagnostic Division, India). LDL and VLDL cholesterol were calculated from the data obtained for total cholesterol, HDL and triglyceride. The reduction of various parameters examined are calculated according to the formula given below.
Formulae for Calculation: • 1. Percent reduction in Blood sugar/triglycerides/total cholesterol were calculated according to the formula: [formula] • OC=Zero day control group value • OT=Zero day treated group value • TC=Test day control group value • TT=Test day treated group value • 2. LDL and VLDL cholesterol levels were calculated according to the formula: [formula] VLDL cholesterol in mg/dl=[Total cholesterol−HDL cholesterol−LDL cholesterol]mg/dl.

| Compound | PPARα [1] | LDL ([2]; LDL cholesterol calculated from TC, HDL and TG) | VLDL ([2]; VLDL cholesterol calculated from TC, HDL and TG) | HDL ([2]; plasma HDL) | TC ([2]; plasma total cholesterol, percent reduction by formula of b285) | TG ([2]; plasma triglyceride, percent reduction by formula of b285) |
| --- | --- | --- | --- | --- | --- | --- |
| (−)-3-[4-[2-(Phenoxazin-10-yl)ethoxy]phenyl]-2-ethoxypropanoic acid phenylglycinol salt [Example 12] | 3.7 |  |  |  |  |  |
| CCO[C@@H](Cc1ccc(OCCN2c3ccccc3Oc3ccccc32)cc1)C(=O)O [Example 3, (−)-3-[4-[2-(Phenoxazin-10-yl)ethoxy]phenyl]-2-ethoxypropanoic acid metformin salt] |  | 46 | 82 | 64 | 82 | 47 |
